Source: ChEMBL document CHEMBL1201861, “Genomics of Drug Sensitity in Cancer screening data, Wellcome Trust Sanger Institute”

Assays:
Test in all cases: cells
Assay type in all cases: functional, cell-based, Homo sapiens
IGROV-1 = settings: Homo sapiens, IGROV-1;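 further: reduction of IGROV-1 cell growth, read out with a viability assay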
Description: SANGER: Inhibition of human IGROV-1 cell growth in a cell viability assay.

HLE = settings: Homo sapiens, HLE;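 further: growth inhibition of human HLE cells, read out by a cell viability assay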
Description: SANGER: Inhibition of human HLE cell growth in a cell viability assay.

KNS-62 = settings: Homo sapiens, KNS-62;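 further: inhibition of cell growth, read out with a cell viability assay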
Description: SANGER: Inhibition of human KNS-62 cell growth in a cell viability assay.

SW1783 = settings: Homo sapiens, SW1783;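 further: cell growth inhibition measured with a viability assay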
Description: SANGER: Inhibition of human SW1783 cell growth in a cell viability assay.

SNU-423 = settings: Homo sapiens, SNU-423
Description: SANGER: Inhibition of human SNU-423 cell growth in a cell viability assay.

Hs-578T = settings: Homo sapiens, Hs-578T
Description: SANGER: Inhibition of human Hs-578-T cell growth in a cell viability assay.

ME-180 = settings: Homo sapiens, ME-180;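 further: cell viability assay measuring growth inhibition of ME-180 cells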
Description: SANGER: Inhibition of human ME-180 cell growth in a cell viability assay.

Detroit 562 = settings: Homo sapiens, Detroit 562;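 further: growth inhibition of human Detroit 562 cells, read out by a cell viability assay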
Description: SANGER: Inhibition of human Detroit562 cell growth in a cell viability assay.

KYSE-270 = settings: Homo sapiens, KYSE-270;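 further: cell growth inhibition measured with a viability assay in the human KYSE-270 line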
Description: SANGER: Inhibition of human KYSE-270 cell growth in a cell viability assay.

M14 = settings: Homo sapiens, M14;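 further: growth inhibition of M14 cells, read out with a cell viability assay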
Description: SANGER: Inhibition of human M14 cell growth in a cell viability assay.

SN12C = settings: Homo sapiens, SN12C;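 further: growth inhibition of human SN12C cells, measured by a cell viability assay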
Description: SANGER: Inhibition of human SN12C cell growth in a cell viability assay.

NCI-H28 = settings: Homo sapiens, NCI-H28;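 further: growth inhibition of human NCI-H28 cells, read out as cell viability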
Description: SANGER: Inhibition of human NCI-H28 cell growth in a cell viability assay.

HCC1395 = settings: Homo sapiens, HCC1395;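 further: growth inhibition of HCC1395 cells, read out by a cell viability assay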
Description: SANGER: Inhibition of human HCC1395 cell growth in a cell viability assay.

GAMG = settings: Homo sapiens, GAMG;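 further: cell growth inhibition measured by a viability assay in the GAMG human cell line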
Description: SANGER: Inhibition of human GAMG cell growth in a cell viability assay.

NCI-H2052 = settings: Homo sapiens, NCI-H2052;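 further: growth inhibition of NCI-H2052 cells, read out with a cell viability assay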
Description: SANGER: Inhibition of human NCI-H2052 cell growth in a cell viability assay.

MDA-MB-175-VII = settings: Homo sapiens, MDA-MB-175-VII
EFO-21 = settings: Homo sapiens, EFO-21;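 further: growth inhibition of EFO-21 cells measured with a viability assay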
Description: SANGER: Inhibition of human EFO-21 cell growth in a cell viability assay.

LCLC-103H cell line = settings: Homo sapiens, LCLC-103H
Description: SANGER: Inhibition of human LCLC-103H cell growth in a cell viability assay.

BFTC-909 = settings: Homo sapiens, BFTC-909
Description: SANGER: Inhibition of human BFTC-909 cell growth in a cell viability assay.

KYSE-520 cell line = settings: Homo sapiens, KYSE-520;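 further: growth inhibition of human KYSE-520 cells, read out with a viability assay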
Description: SANGER: Inhibition of human KYSE-520 cell growth in a cell viability assay.

NCI-H1693 = settings: Homo sapiens, NCI-H1693;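 further: growth inhibition of the human cell line, read out with a cell viability assay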
Description: SANGER: Inhibition of human NCI-H1693 cell growth in a cell viability assay.

SW1990 = settings: Homo sapiens, SW1990;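 further: cell growth inhibition determined with a viability assay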
Description: SANGER: Inhibition of human SW1990 cell growth in a cell viability assay.

NCI-H2347 = settings: Homo sapiens, NCI-H2347;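 further: growth inhibition of the cell line, read out with a cell viability assay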
Description: SANGER: Inhibition of human NCI-H2347 cell growth in a cell viability assay.

A549 = settings: Homo sapiens, A549;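 further: growth inhibition of A549 cells, read out with a cell viability assay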
Description: SANGER: Inhibition of human A549 cell growth in a cell viability assay.

Huh-7 = settings: Homo sapiens, Huh-7;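 further: HuH-7 cell growth inhibition, read out with a cell viability assay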
Description: SANGER: Inhibition of human HuH-7 cell growth in a cell viability assay.

OC-314 = settings: Homo sapiens, OC-314
Description: SANGER: Inhibition of human OC-314 cell growth in a cell viability assay.

HSC-3 = settings: Homo sapiens, HSC-3
Description: SANGER: Inhibition of human HSC-3 cell growth in a cell viability assay.

NCI-H2087 = settings: Homo sapiens, NCI-H2087;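 further: growth inhibition determined with a cell viability readout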
Description: SANGER: Inhibition of human NCI-H2087 cell growth in a cell viability assay.

BT-549 = settings: Homo sapiens, BT-549
Description: SANGER: Inhibition of human BT-549 cell growth in a cell viability assay.

639-V = settings: Homo sapiens, 639-V;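 further: growth inhibition of 639-V cells, read out with a cell viability assay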
Description: SANGER: Inhibition of human 639-V cell growth in a cell viability assay.

C-33-A = settings: Homo sapiens, C-33-A;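 further: cell viability assay measuring growth inhibition of C-33-A cells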
Description: SANGER: Inhibition of human C-33-A cell growth in a cell viability assay.

NCI-H727 = settings: Homo sapiens, NCI-H727;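 further: growth inhibition of human NCI-H727 cells, read out with a cell viability assay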
Description: SANGER: Inhibition of human NCI-H727 cell growth in a cell viability assay.

RCM-1 = settings: Homo sapiens, RCM-1;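 further: growth inhibition of the RCM-1 line, determined with a cell viability readout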
Description: SANGER: Inhibition of human RCM-1 cell growth in a cell viability assay.

HPAF-II = settings: Homo sapiens, HPAF-II;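 further: growth inhibition of HPAF-II cells, read out with a cell viability assay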
Description: SANGER: Inhibition of human HPAF-II cell growth in a cell viability assay.

EFM-19 = settings: Homo sapiens, EFM-19;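 further: growth inhibition of human EFM-19 cells, measured in a cell viability assay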
Description: SANGER: Inhibition of human EFM-19 cell growth in a cell viability assay.

786-0 = settings: Homo sapiens
Description: SANGER: Inhibition of human 786-0 cell growth in a cell viability assay.

8305C = settings: Homo sapiens, 8305C
Description: SANGER: Inhibition of human 8305C cell growth in a cell viability assay.

A 172 = settings: Homo sapiens, A 172;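 further: growth inhibition of A172 cells, measured with a cell viability readout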
Description: SANGER: Inhibition of human A172 cell growth in a cell viability assay.

Compound	IC50 (IGROV-1) [µM]	IC50 (HLE) [µM]	IC50 (KNS-62) [µM]	IC50 (SW1783) [µM]	IC50 (SNU-423) [µM]	IC50 (Hs-578T) [µM]	IC50 (ME-180) [µM]	IC50 (Detroit 562) [µM]	IC50 (KYSE-270) [µM]	IC50 (M14) [µM]	IC50 (SN12C) [µM]	IC50 (NCI-H28) [µM]	IC50 (HCC1395) [µM]	IC50 (GAMG) [µM]	IC50 (NCI-H2052) [µM]	IC50 (MDA-MB-175-VII) [µM]	IC50 (EFO-21) [µM]	IC50 (LCLC-103H cell line) [µM]	IC50 (BFTC-909) [µM]	IC50 (KYSE-520 cell line) [µM]	further results
Cn1cnc2c(F)c(Nc3ccc(Br)cc3Cl)c(C(=O)NOCCO)cc21 [SELUMETINIB]	> 4	> 4	> 4	> 4	> 4	> 4	> 4	> 4	> 4	0.0369	3.96	> 4	> 4	> 4	> 4	> 4	3.19	> 4	> 4	> 4	IC50 (NCI-H1693): > 4 µM; IC50 (SW1990): > 4 µM; IC50 (NCI-H2347): > 4 µM; IC50 (A549): 0.214 µM; IC50 (Huh-7): > 4 µM; IC50 (OC-314): > 4 µM; IC50 (HSC-3): 1.19 µM; IC50 (NCI-H2087): 1.38 µM; IC50 (BT-549): > 4 µM; IC50 (639-V): > 4 µM; IC50 (C-33-A): > 4 µM; IC50 (NCI-H727): > 4 µM; IC50 (RCM-1): 0.494 µM; IC50 (HPAF-II): 3.34 µM; IC50 (EFM-19): > 4 µM; IC50 (786-0): > 4 µM; IC50 (8305C): > 4 µM
CC(C)CCN1c2nc(Nc3cc(F)c(O)c(F)c3)ncc2N(C)C(=O)C1C (stereo not given)	> 5	> 5	> 5	> 5	> 5	> 5	2.78	> 5	> 5	> 5	> 5	> 5	> 5	0.747	> 5	> 5	> 5	> 5	> 5	> 5	IC50 (A 172): 0.517 µM; IC50 (NCI-H1693): > 5 µM; IC50 (SW1990): > 5 µM; IC50 (NCI-H2347): > 5 µM; IC50 (A549): 1.31 µM; IC50 (Huh-7): > 5 µM; IC50 (OC-314): > 5 µM; IC50 (HSC-3): 0.818 µM; IC50 (NCI-H2087): > 5 µM; IC50 (BT-549): > 5 µM; IC50 (639-V): 2.72 µM; IC50 (C-33-A): > 5 µM; IC50 (NCI-H727): > 5 µM; IC50 (RCM-1): > 5 µM; IC50 (HPAF-II): > 5 µM; IC50 (EFM-19): > 5 µM; IC50 (786-0): > 5 µM; IC50 (8305C): 3.89 µM
